In ChEMBL document CHEMBL1151444, “Failure of current cefepime breakpoints to predict clinical outcomes of bacteremia caused by gram-negative organisms” (2007):

Tests used:
Type in all cases: functional
Escherichia coli = test: Antibacterial activity in Escherichia coli infected patient assessed as mortality after 28 days
Klebsiella sp. = test: Antibacterial activity in Klebsiella sp. infected patient assessed as mortality after 28 days
Proteus sp. = test: Antibacterial activity in Proteus sp. infected patient assessed as mortality after 28 days
Serratia sp. = test: Antibacterial activity in Serratia sp. infected patient assessed as mortality after 28 days
Pseudomonas aeruginosa = test: Antibacterial activity in Pseudomonas aeruginosa infected patient assessed as mortality after 28 days
Enterobacter sp. = test: Antibacterial activity in Enterobacter sp. infected patient assessed as mortality after 28 days

CO/N=C(\C(=O)N[C@@H]1C(=O)N2C(C(=O)[O-])=C(C[N+]3(C)CCCC3)CS[C@H]12)c1csc(N)n1 [CEFEPIME]
Activity (Escherichia coli): 21.2%
Activity (Klebsiella sp.): 30.4%
Activity (Proteus sp.): 25%
Activity (Serratia sp.): 23.8%
Activity (Pseudomonas aeruginosa): 39.1%
Activity (Enterobacter sp.): 21.7%
